Measurements reported in ChEMBL document CHEMBL5291721, “A preclinical secondary pharmacology resource illuminates target-adverse drug reaction associations of marketed drugs” (Nat Commun, 2023).

Experiments:
[1] = biological target: T1, 5-hydroxytryptamine receptor 1A (Homo sapiens, UniProt P08908)
T1 sequence (P08908 whole entry): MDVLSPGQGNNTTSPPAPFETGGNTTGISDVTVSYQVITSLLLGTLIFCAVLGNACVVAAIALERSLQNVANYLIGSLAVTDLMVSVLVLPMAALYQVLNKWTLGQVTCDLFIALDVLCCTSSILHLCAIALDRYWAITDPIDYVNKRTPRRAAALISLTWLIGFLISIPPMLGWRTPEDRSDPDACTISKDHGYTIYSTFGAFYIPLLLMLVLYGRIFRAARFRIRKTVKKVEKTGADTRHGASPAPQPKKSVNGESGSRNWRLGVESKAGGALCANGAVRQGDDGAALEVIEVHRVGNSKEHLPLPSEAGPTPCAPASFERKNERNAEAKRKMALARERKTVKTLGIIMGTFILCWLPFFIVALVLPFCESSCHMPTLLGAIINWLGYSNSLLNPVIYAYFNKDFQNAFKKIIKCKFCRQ

[2] = biological target: T2, Prostaglandin G/H synthase 1 (Rattus norvegicus, UniProt Q63921); format: functional
T2 sequence (Q63921 whole entry): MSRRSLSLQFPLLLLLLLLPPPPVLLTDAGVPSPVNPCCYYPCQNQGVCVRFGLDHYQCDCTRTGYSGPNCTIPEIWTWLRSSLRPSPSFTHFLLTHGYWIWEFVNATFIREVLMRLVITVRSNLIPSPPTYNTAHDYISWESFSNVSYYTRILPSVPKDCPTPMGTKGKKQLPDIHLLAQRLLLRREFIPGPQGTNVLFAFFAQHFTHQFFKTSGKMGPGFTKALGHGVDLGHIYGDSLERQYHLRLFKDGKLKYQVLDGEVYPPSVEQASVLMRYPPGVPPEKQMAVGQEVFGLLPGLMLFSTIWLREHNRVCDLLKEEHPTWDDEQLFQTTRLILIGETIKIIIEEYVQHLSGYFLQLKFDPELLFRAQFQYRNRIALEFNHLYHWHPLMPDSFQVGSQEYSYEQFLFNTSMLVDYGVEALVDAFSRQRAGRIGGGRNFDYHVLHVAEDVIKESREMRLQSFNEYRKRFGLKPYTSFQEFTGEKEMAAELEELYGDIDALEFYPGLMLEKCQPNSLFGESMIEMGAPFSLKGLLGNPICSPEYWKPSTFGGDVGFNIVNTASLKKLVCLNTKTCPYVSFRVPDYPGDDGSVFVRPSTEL

[3] = biological target: T3, Type-1 angiotensin II receptor (Homo sapiens, UniProt P30556)
T3 sequence (P30556 whole entry): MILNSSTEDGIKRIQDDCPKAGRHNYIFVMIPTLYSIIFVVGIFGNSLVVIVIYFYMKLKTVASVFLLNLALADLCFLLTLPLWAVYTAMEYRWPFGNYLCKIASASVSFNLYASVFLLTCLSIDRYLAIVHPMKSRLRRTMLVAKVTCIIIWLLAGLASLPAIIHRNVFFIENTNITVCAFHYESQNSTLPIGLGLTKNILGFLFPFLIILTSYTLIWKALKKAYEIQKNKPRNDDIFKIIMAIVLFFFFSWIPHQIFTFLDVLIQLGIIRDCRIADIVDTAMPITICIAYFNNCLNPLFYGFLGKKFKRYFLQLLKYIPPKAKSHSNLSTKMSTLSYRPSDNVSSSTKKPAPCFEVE

[4] = biological target: T4, Nuclear receptor subfamily 1 group I member 3 (Homo sapiens, UniProt Q14994); format: functional
T4 sequence (Q14994 whole entry): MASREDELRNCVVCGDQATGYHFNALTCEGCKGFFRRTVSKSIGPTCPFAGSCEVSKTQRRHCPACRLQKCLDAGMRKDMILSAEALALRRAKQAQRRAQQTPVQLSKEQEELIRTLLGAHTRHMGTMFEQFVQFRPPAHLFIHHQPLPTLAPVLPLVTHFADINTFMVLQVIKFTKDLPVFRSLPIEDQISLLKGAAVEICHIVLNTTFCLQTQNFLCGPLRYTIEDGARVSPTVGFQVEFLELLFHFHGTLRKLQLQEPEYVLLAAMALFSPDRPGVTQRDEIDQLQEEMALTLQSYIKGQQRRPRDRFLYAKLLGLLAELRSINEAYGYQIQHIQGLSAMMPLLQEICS

[5] = biological target: T5, Retinoic acid receptor alpha (Homo sapiens, UniProt P10276); format: functional, cell-based
T5 sequence (P10276 whole entry): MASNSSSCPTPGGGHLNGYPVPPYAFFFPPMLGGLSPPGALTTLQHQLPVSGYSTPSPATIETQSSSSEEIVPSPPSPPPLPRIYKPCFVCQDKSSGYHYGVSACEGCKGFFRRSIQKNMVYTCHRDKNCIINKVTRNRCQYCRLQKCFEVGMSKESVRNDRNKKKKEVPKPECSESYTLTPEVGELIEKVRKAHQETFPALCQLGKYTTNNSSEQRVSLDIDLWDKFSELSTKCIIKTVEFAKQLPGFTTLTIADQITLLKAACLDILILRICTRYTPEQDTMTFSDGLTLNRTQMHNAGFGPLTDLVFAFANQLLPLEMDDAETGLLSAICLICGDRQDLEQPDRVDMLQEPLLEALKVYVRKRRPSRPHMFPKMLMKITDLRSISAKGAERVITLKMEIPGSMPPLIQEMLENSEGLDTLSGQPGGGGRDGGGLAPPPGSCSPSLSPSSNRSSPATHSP

[6] = biological target: T6, Oxysterols receptor LXR-beta (Homo sapiens, UniProt P55055); format: functional
T6 sequence (P55055 whole entry): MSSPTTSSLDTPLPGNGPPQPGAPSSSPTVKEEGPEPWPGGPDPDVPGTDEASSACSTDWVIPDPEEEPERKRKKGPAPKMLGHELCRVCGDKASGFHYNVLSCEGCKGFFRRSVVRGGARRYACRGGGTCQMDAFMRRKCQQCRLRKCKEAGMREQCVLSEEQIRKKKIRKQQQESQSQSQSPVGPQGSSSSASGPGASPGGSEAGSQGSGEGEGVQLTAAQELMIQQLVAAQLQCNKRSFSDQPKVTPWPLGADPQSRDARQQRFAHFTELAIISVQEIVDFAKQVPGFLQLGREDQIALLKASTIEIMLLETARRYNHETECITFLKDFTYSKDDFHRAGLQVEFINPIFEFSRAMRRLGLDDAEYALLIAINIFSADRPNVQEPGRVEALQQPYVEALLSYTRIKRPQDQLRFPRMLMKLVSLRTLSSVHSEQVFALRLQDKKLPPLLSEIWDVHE

[7] = biological target: T6, Oxysterols receptor LXR-beta; format: functional; remark: listed apart in the source
Note: assay procedure not described here.

In the case of `Nc1nc(N)c2nc(-c3ccccc3)c(N)nc2n1`, the AC50 [1] is reported as > 30 µM.
For `COC(=O)[C@@H]1CC2=CC(=O)CC[C@]2(C)[C@@]23O[C@@H]2C[C@@]2(C)[C@@H](CC[C@@]24CCC(=O)O4)[C@H]13` [EPLERENONE], the AC50 [2] was > 30 µM.
For `CC(C)C(=O)Nc1ccc([N+](=O)[O-])c(C(F)(F)F)c1` [FLUTAMIDE], the AC50 [1] was > 30 µM.
`CN1CCCC(n2nc(Cc3ccc(Cl)cc3)c3ccccc3c2=O)CC1` (stereo unspecified) [AZELASTINE] was tested, and the AC50 [3] was > 100 µM.
In the case of `Oc1ncnc2[nH]ncc12` [ALLOPURINOL], the AC50 [1] is reported as > 30 µM.
With `NC(=O)c1cnccn1` [PYRAZINAMIDE] the AC50 [1] was > 30 µM.
Molecule `Cc1ccc(C(=O)c2cc(O)c(O)c([N+](=O)[O-])c2)cc1` [TOLCAPONE] has an AC50 [4] of 13 µM.
For `COc1ccc2c(c1)C(=O)N(CCc1ccc(S(=O)(=O)NC(=O)NC3CCCCC3)cc1)C(=O)C2(C)C` [GLIQUIDONE], the AC50 [5] was > 30 µM, the AC50 [6] was > 30 µM and the AC50 [4] was 4.8 µM. It also gave an AC50 [7] of 2.7 µM.
